In the assay the test system is human C-Myc gene transcription in MV-4-11 cells. Put plainly: Transcription of human C-Myc in human leukemic MV-4-11 cells (QuantiGene 2.0). The class given is cell-based. Conditions: inhibition of C-Myc mRNA, 4 hours treatment. As to the method:
b) Transcription of Human C-Myc in Human Leukemic MV-4-11 Cells:
The effect of compounds on transcription of human C-Myc gene is monitored in human B-myelomonocytic leukemia cell line MV-4-11 (from American Type Culture Collection (ATCC), Manassas, Va., USA) using QuantiGene 2.0 assay kit (Affymetrix, Santa Clara, Calif., USA).
Typically, 8,000 MV-4-11 cells are plated in sterile 96-well plates (Costar #3598 from Fisher Scientific Canada, Ottawa, Ontario, Canada) in Iscove's medium supplemented with 10% fetal bovine serum, glutamine (2 mM), and penicillin (100 I.U.) and streptomycin (100 μg/mL) (all from Wisent Inc., St. Bruno, Quebec, Canada). Compounds are dissolved in DMSO at 30 mM. A series of 1:3 dilutions are first made in DMSO, and further […] dilutions are made in serum-containing cell culture media. The final concentration of DMSO is […] in cell culture media. After cells are treated with various concentrations of test compound for 4 hours, cells are lysed using Quantigene 2.0 sample processing kit (#QS0100). C-Myc mRNA is detected using a QuantiGene 2.0 assay kit (#QS0009) with gene-specific probe to human C-Myc (#SA-50182) following the manufacturer's recommendations. Luminescene signals are read on Flexstation II microplate reader (Molecular Devices, Sunnyvale, Calif., USA). Percentage of inhibition of C-Myc transcription is analyzed using EXCEL (2010 version).

What is called IC50 is the concentration that gives 50% inhibition. Higher therefore signals weaker potency in that assay. In the case of `Cc1cc(-c2ccc3ncc(S(=O)(=O)NC(C)C)n3c2)cn(C)c1=O` [Compound 17, 6-(1,5-dimethyl-6-oxo-1,6-dihydropyridin-3-yl)-N-isopropylimidazo [1,2-a] pyridine-3-sulfonamide], for the setting “Homo sapiens, MV4-11, 4 h”, inhibition was half-maximal at 758 nM (IC50). The compound `Cc1cc(-c2ccc3ncc(S(=O)(=O)NC4CCCOC4)n3c2)cn(C)c1=O` (stereo not drawn) [Compound 44, 6-(1,5-dimethyl-6-oxo-1,6-dihydropyridin-3-yl)-N-(tetrahydro-2H-pyran-3-yl)imidazo[1,2-a]pyridine-3-sulfonamide] gave a 50% inhibitory concentration (IC50) of 597 nM. For `Cc1nc2ccc(-c3cc(C)c(=O)n(C)c3)cn2c1Cc1ccccn1` [Compound 54, 1,3-dimethyl-5-[2-methyl-3-(2-pyridylmethyl)imidazo[1,2-a]pyridin-6-yl] pyridin-2-one], for the setting “Homo sapiens, MV4-11, 4 h”, the IC50 is 151 nM. In turn, `Cc1cc(-c2ccc3ncc(S(=O)(=O)NC4CCOCC4)n3c2)cn(C)c1=O` [Compound 42, 6-(1,5-dimethyl-6-oxo-1,6-dihydropyridin-3-yl)-N-(tetrahydro-2H-pyran-4-yl)imidazo[1,2-a]pyridine-3-sulfonamide] displayed an IC50 (Homo sapiens, MV4-11, 4 h) of 865 nM. Under “Homo sapiens, MV4-11, 4 h”, `Cc1cc(-c2ccc3ncc(NC4CCCC4)n3c2)cn(C)c1=O` [Compound 22, 5-[3-(cyclopentylamino)imidazo[1,2-a]pyridin-6-yl]-1,3-dimethyl-pyridin-2-one] had an IC50 of 9.8 nM. The compound `Cc1cc(-c2ccc3ncc(C(=O)N4CCOCC4)n3c2)cn(C)c1=O` [Compound 11, 1,3-dimethyl-5-(3-(morpholine-4-carbonyl)imidazo[1,2-a]pyridin-6-yl) pyridin-2(1H)-one] gave a concentration for half-maximal inhibition (IC50) (Homo sapiens, MV4-11, 4 h) of 2730 nM. Consider `Cc1cc(-c2ccc3ncc(S(=O)(=O)N(C)C4CCOC4)n3c2)cn(C)c1=O` (single isomer, unassigned) [Compound 48, 6-(1,5-dimethyl-6-oxo-1,6-dihydropyridin-3-yl)-N-methyl-N-(tetrahydrofuran-3-yl)imidazo[1,2-a]pyridine-3-sulfonamide], for which the midpoint of inhibition, the IC50, lay at 537 nM.

`Cc1nc2ccc(-c3cc(C)c(=O)n(C)c3)cn2c1Cc1ccncc1` [Compound 56, 1,3-dimethyl-5-[2-methyl-3-(4-pyridylmethyl)imidazo[1,2-a]pyridin-6-yl] pyridin-2-one] registered an IC50 (Homo sapiens, MV4-11, 4 h) of 153 nM. `Cc1cc(-c2ccc3ncc(S(=O)(=O)N4CCC[C@H]4C)n3c2)cn(C)c1=O` [Compound 45, (R)-1,3-dimethyl-5-(3-((2-methylpyrrolidin-1-yl)sulfonyl)imidazo[1,2-a]pyridin-6-yl)pyridin-2(1H)-one]: for the setting “Homo sapiens, MV4-11, 4 h”, the IC50 came out at 507 nM. The same measure, in the same setting: next, `CCNS(=O)(=O)c1cnc2ccc(-c3cc(C)c(=O)n(C)c3)cn12` [Compound 15, 6-(1,5-dimethyl-6-oxo-1,6-dihydropyridin-3-yl)-N-ethylimidazo[1,2-a] pyridine-3-sulfonamide]: 2520 nM. Same read-out and setting: next, `Cc1cc(-c2ccc3ncc(COC4CCC4)n3c2)cn(C)c1=O` [Compound 25, 5-[3-(cyclobutoxymethyl)imidazo[1,2-a]pyridin-6-yl]-1,3-dimethyl-pyridin-2-one]: 174 nM; `Cc1cc(-c2ccc3ncc(CN4CCCCC4=O)n3c2)cn(C)c1=O` [Compound 26, 1,3-dimethyl-5-[3-[(2-oxo-1-piperidyl)methyl]imidazo[1,2-a]pyridin-6-yl]pyridin-2-one]: 492 nM.

On to `Cc1cc(-c2ccc3ncc(S(=O)(=O)NC4CCCC4)n3c2)cn(C)c1=O` [Compound 16, N-cyclopentyl-6-(1,5-dimethyl-6-oxo-1,6-dihydropyridin-3-yl)imidazo[1,2-a]pyridine-3-sulfonamide], for which the IC50 (Homo sapiens, MV4-11, 4 h) came out at 81.3 nM. `CO[C@H]1CCN(S(=O)(=O)c2cnc3ccc(-c4cc(C)c(=O)n(C)c4)cn23)C1` [Compound 50, (S)-5-(3-((3-methoxypyrrolidin-1-yl)sulfonyl)imidazo[1,2-a]pyridin-6-yl)-1,3-dimethylpyridin-2(1H)-one] displayed an IC50 (Homo sapiens, MV4-11, 4 h) of 2370 nM. Under “Homo sapiens, MV4-11, 4 h”, `Cc1nc2ccc(-c3cc(C)c(=O)n(C)c3)cn2c1Cc1cccnc1` [Compound 55, 1,3-dimethyl-5-[2-methyl-3-(3-pyridylmethyl)imidazo[1,2-a]pyridin-6-yl] pyridin-2-one] returned an IC50 of 84.5 nM.

`Cc1cc(-c2ccc3ncc(S(=O)(=O)N4CCC[C@@H]4C)n3c2)cn(C)c1=O` [Compound 46, (S)-1,3-dimethyl-5-(3-((2-methylpyrrolidin-1-yl)sulfonyl)imidazo[1,2-a]pyridin-6-yl)pyridin-2(1H)-one] yielded an IC50 (Homo sapiens, MV4-11, 4 h) of 178 nM. As to `Cc1nc2ccc(-c3cc(C)c(=O)n(C)c3)cn2c1Cc1ccccc1` [Compound 24, 5-(3-benzyl-2-methyl-imidazo[1,2-a]pyridin-6-yl)-1,3-dimethyl-pyridin-2-one], the 50% inhibitory concentration (IC50) (Homo sapiens, MV4-11, 4 h) came to 32.2 nM. In the case of `Cc1cc(-c2ccc3ncc(NCC4CCCC4)n3c2)cn(C)c1=O` [Compound 23, 5-[3-(cyclopentylmethylamino)imidazo[1,2-a]pyridin-6-yl]-1,3-dimethyl-pyridin-2-one], for the setting “Homo sapiens, MV4-11, 4 h”, the 50% inhibitory concentration (IC50) is 16.5 nM. `Cc1cc(-c2ccc3ncc(S(=O)(=O)NC4CCCOC4)n3c2)cn(C)c1=O` (stereo not drawn) [Compound 43, 6-(1,5-dimethyl-6-oxo-1,6-dihydropyridin-3-yl)-N-(tetrahydro-2H-pyran-3-yl)imidazo[1,2-a]pyridine-3-sulfonamide]: the IC50 was determined as 253 nM.

Compound `COC(c1ccccc1)c1cnc2ccc(-c3cc(C)c(=O)n(C)c3)cn12` (stereo not drawn) [Compound 7, 5-[3-[methoxy(phenyl)methyl]imidazo[1,2-a]pyridin-6-yl]-1,3-dimethyl-pyridin-2-one] displayed an IC50 (Homo sapiens, MV4-11, 4 h) of 92.8 nM. With `Cc1cc(-c2ccc3ncc(S(=O)(=O)N(C)C4CCOC4)n3c2)cn(C)c1=O` (single isomer, unassigned) [Compound 47, 6-(1,5-dimethyl-6-oxo-1,6-dihydropyridin-3-yl)-N-methyl-N-(tetrahydrofuran-3-yl)imidazo[1,2-a]pyridine-3-sulfonamide], the half-maximal inhibitory concentration (IC50) (Homo sapiens, MV4-11, 4 h) amounted to 731 nM. In turn, `Cc1cc(-c2ccc3ncc(C(=O)N4CCCCC4)n3c2)cn(C)c1=O` [Compound 13, 1,3-dimethyl-5-(3-(piperidine-1-carbonyl)imidazo[1,2-a]pyridin-6-yl)pyridin-2(1H)-one] gave an IC50 (Homo sapiens, MV4-11, 4 h) of 2660 nM. In turn, `Cc1cc(-c2ccc3ncc(C(=O)NC4CCCCC4)n3c2)cn(C)c1=O` [Compound 12, N-cyclohexyl-6-(1,5-dimethyl-6-oxo-1,6-dihydropyridin-3-yl)imidazo[1,2-a] pyridine-3-carboxamide] returned an IC50 (Homo sapiens, MV4-11, 4 h) of 912 nM. `COC(c1ccccc1)c1cnc2ccc(-c3cc(C)c(=O)n(C)c3)cn12` (stereo not drawn) [Compound 6, 5-[3-[methoxy(phenyl)methyl]imidazo[1,2-a]pyridin-6-yl]-1,3-dimethyl-pyridin-2-one]: half-maximal inhibition (IC50) was put at 91.3 nM. In turn, `Cc1cc(-c2ccc3ncc(CN4CCOCC4)n3c2)cn(C)c1=O` [Compound 21, 1,3-dimethyl-5-[3-(morpholinomethyl)imidazo[1,2-a]pyridin-6-yl]pyridin-2-one] yielded a concentration for half-maximal inhibition (IC50) (Homo sapiens, MV4-11, 4 h) of 816 nM.

In turn, `Cc1cc(-c2ccc3ncc(CN4CCC(F)(F)CC4)n3c2)cn(C)c1=O` [Compound 20, 5-[3-[(4,4-difluoro-1-piperidyl)methyl]imidazo[1,2-a]pyridin-6-yl]-1,3-dimethyl-pyridin-2-one] registered an IC50 (Homo sapiens, MV4-11, 4 h) of 112 nM. `Cc1cc(-c2ccc3ncc(S(=O)(=O)N4CCCC4)n3c2)cn(C)c1=O` [Compound 19, 1,3-dimethyl-5-(3-(pyrrolidin-1-ylsulfonyl)imidazo[1,2-a]pyridin-6-yl)pyridin-2(1H)-one] came in with an IC50 (Homo sapiens, MV4-11, 4 h) of 170 nM. Take `Cc1cc(-c2ccc3ncc(Nc4ccccc4)n3c2)cn(C)c1=O` [Compound 30, 5-(3-anilinoimidazo[1,2-a]pyridin-6-yl)-1,3-dimethyl-pyridin-2-one]: the IC50 (Homo sapiens, MV4-11, 4 h) amounted to 24.9 nM.

For the setting “Homo sapiens, MV4-11, 4 h”, `Cc1cc(-c2ccc3ncc(S(=O)(=O)N4CCCCC4)n3c2)cn(C)c1=O` [Compound 14, 1,3-dimethyl-5-(3-(piperidin-1-ylsulfonyl)imidazo[1,2-a]pyridin-6-yl)pyridin-2(1H)-one] had an IC50 of 508 nM. Still for that read-out and setting: the same measure for `Cc1cc(-c2ccc3ncc(S(=O)(=O)NC4CCCCC4)n3c2)cn(C)c1=O` [Compound 18, N-cyclohexyl-6-(1,5-dimethyl-6-oxo-1,6-dihydropyridin-3-yl)imidazo[1,2-a]pyridine-3-sulfonamide]: 93.7 nM. As to `Cc1cc(-c2ccc3ncc(S(=O)(=O)NC4CCOC4)n3c2)cn(C)c1=O` (single isomer, unassigned) [Compound 53, 6-(1,5-dimethyl-6-oxo-1,6-dihydropyridin-3-yl)-N-(tetrahydrofuran-3-yl) imidazo[1,2-a]pyridine-3-sulfonamide], inhibition was half-maximal at 898 nM (IC50). Where the note is “Homo sapiens, MV4-11, 4 h”, `Cc1cc(-c2ccc3ncc(COCC(F)(F)F)n3c2)cn(C)c1=O` [Compound 34, 1,3-dimethyl-5-[3-(2,2,2-trifluoroethoxymethyl)imidazo[1,2-a]pyridin-6-yl]pyridin-2-one] gave an IC50 of 234 nM. `Cc1cc(-c2ccc3ncc(S(=O)(=O)NC4CCOC4)n3c2)cn(C)c1=O` (single isomer, unassigned) [Compound 52, 6-(1,5-dimethyl-6-oxo-1,6-dihydropyridin-3-yl)-N-(tetrahydrofuran-3-yl) imidazo[1,2-a]pyridine-3-sulfonamide]: the IC50 (Homo sapiens, MV4-11, 4 h) was found to be 891 nM.

(Values after US10501459B2, “Substituted imidazo[1,2-a]pyridines as bromodomain inhibitors” (NEOMED Institute, priority 2015, dated 2019).)
